# Results from patent publication US9738655B2, “Tetrahydroisoquinolines containing substituted azoles as factor XIa inhibitors” (BRISTOL-MYERS SQUIBB COMPANY, priority 2013, dated 2017).
# Structures can show the parent of a compound that is named as a salt.
# Columns and labels:
# [1] = target: purified human plasma kallikrein (Homo sapiens (Human), UniProt P03952); test: Plasma kallikrein enzyme inhibition assay (chromogenic substrate S-2302); format: biochemical
# Experimental: The effectiveness of compounds of the present invention as inhibitors of the coagulation Factors XIa, VIIa, IXa, Xa, XIIa, plasma kallikrein or thrombin, can be determined using a relevant purified serine protease, respectively, and an appropriate synthetic substrate. The rate of hydrolysis of the chromogenic or fluorogenic substrate by the relevant serine protease was measured both in the absence and presence of compounds of the present invention. […] A decrease in the rate of absorbance or fluorescence change in the presence of inhibitor is indicative of enzyme inhibition. […] The results of this assay are expressed as the inhibitory constant, Ki.
# Values of Ki were determined by allowing the protease to react with the substrate in the presence of the inhibitor.
# The following relationships were used to calculate Ki values: (Vmax*S)/(Km+S); (vo−vs)/vs=I/(Ki(1+S/Km)) for a competitive inhibitor with one binding site; or vs/vo=A+((B−A)/1+((IC50/(I)n))); and Ki−IC50/((1+S/Km) for a competitive inhibitor where:
# [2] = target: purified human Factor XIa (Homo sapiens (Human), UniProt P03951); test: Factor XIa enzyme inhibition assay (chromogenic substrate S-2366); details: read-out: Factor XIa Ki; measured at 25° C.
# [3] = measured at 25° C. (no asterisk)
# Sequence of purified human plasma kallikrein (P03952 391-638): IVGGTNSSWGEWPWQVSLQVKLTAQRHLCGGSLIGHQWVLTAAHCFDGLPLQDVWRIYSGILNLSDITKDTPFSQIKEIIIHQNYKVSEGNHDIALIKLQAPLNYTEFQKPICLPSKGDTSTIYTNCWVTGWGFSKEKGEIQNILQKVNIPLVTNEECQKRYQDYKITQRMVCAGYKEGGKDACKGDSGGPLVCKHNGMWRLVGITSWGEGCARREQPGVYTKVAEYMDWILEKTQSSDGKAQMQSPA
# Sequence of purified human plasma kallikrein (P03952 20-390 partner): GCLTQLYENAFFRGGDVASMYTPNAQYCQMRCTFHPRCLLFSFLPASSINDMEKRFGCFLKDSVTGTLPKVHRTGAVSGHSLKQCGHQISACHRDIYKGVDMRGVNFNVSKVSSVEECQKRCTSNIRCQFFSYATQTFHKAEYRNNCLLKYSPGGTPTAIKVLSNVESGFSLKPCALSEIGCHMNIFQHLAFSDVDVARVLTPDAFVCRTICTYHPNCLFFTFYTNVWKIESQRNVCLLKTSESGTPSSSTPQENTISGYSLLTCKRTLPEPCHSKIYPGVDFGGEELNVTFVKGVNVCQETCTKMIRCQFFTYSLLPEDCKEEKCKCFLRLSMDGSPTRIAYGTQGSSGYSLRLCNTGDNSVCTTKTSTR
# Sequence of purified human Factor XIa (P03951 388-625): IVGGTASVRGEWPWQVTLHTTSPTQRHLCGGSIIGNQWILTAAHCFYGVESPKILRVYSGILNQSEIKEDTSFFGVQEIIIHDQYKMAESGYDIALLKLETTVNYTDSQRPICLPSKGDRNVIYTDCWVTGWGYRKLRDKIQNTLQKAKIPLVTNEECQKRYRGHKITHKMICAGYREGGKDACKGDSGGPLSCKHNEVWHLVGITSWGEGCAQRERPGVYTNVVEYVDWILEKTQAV
# Sequence of purified human Factor XIa (P03951 19-387 partner): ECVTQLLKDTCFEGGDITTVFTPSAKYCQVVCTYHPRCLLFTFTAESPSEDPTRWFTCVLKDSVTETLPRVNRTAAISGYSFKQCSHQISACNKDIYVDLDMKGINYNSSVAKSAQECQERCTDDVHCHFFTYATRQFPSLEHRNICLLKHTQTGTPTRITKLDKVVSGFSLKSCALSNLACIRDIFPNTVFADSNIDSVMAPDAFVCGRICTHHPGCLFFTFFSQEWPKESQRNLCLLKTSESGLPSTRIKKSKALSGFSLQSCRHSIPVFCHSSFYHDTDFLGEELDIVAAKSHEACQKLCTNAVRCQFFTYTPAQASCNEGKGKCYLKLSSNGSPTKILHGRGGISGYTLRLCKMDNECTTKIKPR
smiles,measurement,setting,value
"COC1CCN(c2cccc3c2CCN(C(=O)c2cnn(-c4ccc5nonc5c4)c2)C3C(=O)Nc2ccc(C(=O)O)cc2)CC1 (stereo not drawn) [Example 331, 4-(2-(1-(benzo[c][1,2,5]oxadiazol-5-yl)-1H-pyrazole-4-carbonyl)-5-(4-methoxypiperidin-1-yl)-1,2,3,4-tetrahydroisoquinoline-1-carboxamido)benzoic acid]",Ki,[1]; measured at 37° C. (*),> 6000 nM
same,Ki,[2],7050 nM
"C=C(C)c1cccc2c1CCN(C(=O)c1cn(-c3cccc(Cl)c3F)nn1)C2C(=O)Nc1ccc(C(=O)O)cc1 (stereo not drawn) [Example 333, 4-(2-(1-(3-Chloro-2-fluorophenyl)-1H-1,2,3-triazole-4-carbonyl)-5-(prop-1-en-2-yl)-1,2,3,4-tetrahydroisoquinoline-1-carboxamido)benzoic acid]",Ki,[1]; [3],61.3 nM
same,Ki,[2],18.2 nM
"Nc1cccc2c1CCN(C(=O)c1cn(-c3cccc(Cl)c3F)nn1)C2C(=O)Nc1ccc(C(=O)O)cc1 (stereo not drawn) [Example 334, 4-(5-Amino-2-(1-(3-chloro-2-fluorophenyl)-1H-1,2,3-triazole-4-carbonyl)-1,2,3,4-tetrahydroisoquinoline-1-carboxamido)benzoic acid, TFA salt]",Ki,[1]; [3],6.26 nM
same,Ki,[2],10.6 nM
"COC1CCN(c2cccc3c2CCN(C(=O)c2cn(-c4cccc(Cl)c4F)nn2)C3C(=O)Nc2ccc(C(N)=O)cc2)CC1 (stereo not drawn) [Example 335, N-(4-Carbamoylphenyl)-2-(1-(3-chloro-2-fluorophenyl)-1H-1,2,3-triazole-4-carbonyl)-5-(4-methoxypiperidin-1-yl)-1,2,3,4-tetrahydroisoquinoline-1-carboxamide, TFA salt]",Ki,[1]; measured at 37° C. (*),96.9 nM
same,Ki,[2],< 5 nM
"CC(C)c1nnc2n1CCN(c1cccc3c1CCN(C(=O)[C@H]1CC(c4cccc(Cl)c4F)=NO1)[C@@H]3C(=O)Nc1ccc(C(=O)O)cc1)C2 [Example 336, 4-((S)-2-((R)-3-(3-Chloro-2-fluorophenyl)-4,5-dihydroisoxazole-5-carbonyl)-5-(3-isopropyl-5,6-dihydro-[1,2,4]triazolo[4,3-a]pyrazin-7(8H)-yl)-1,2,3,4-tetrahydroisoquinoline-1-carboxamido)benzoic acid, TFA salt]",Ki,[1]; measured at 37° C. (*),1.4 nM
same,Ki,[2],< 5 nM
"CC(C)c1nnc2n1CCN(c1cccc3c1CCN(C(=O)[C@H]1CC(c4cccc(Cl)c4F)=NO1)[C@H]3C(=O)Nc1ccc(C(=O)O)cc1)C2 [Example 337, 4-((R)-2-((R)-3-(3-Chloro-2-fluorophenyl)-4,5-dihydroisoxazole-5-carbonyl)-5-(3-isopropyl-5,6-dihydro-[1,2,4]triazolo[4,3-a]pyrazin-7(8H)-yl)-1,2,3,4-tetrahydroisoquinoline-1-carboxamido)benzoic acid, TFA salt]",Ki,[1]; measured at 37° C. (*),68.1 nM
same,Ki,[2],27.9 nM
